PubChem BioAssay AID256 (DTP/NCI, 2004)
Values joined by “and” are separate entries in the source; they are usually repeats but may differ in a detail not shown here. Equal entries are not always repeated. Inconclusive results and toxic doses are left out. Rule for the calls: active = survival T/C of 150% or more; inactive = T/C below 125% in these data.

Tested on: CD2F1 mice, L1210 leukemia ip, survival T/C
Experiment: NCI In Vivo Anticancer Drug Screen. Data for tumor model L1210 Leukemia (intraperitoneal) in CD2F1 (CDF1) mice
Conditions: higher = longer survival
How it was run: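 Activity against a transplanted murine tumor was judged by comparing the compound group with a vehicle group. The outcome in the treated animals was divided by that in the controls.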

[1] = endpoint: mean survival time, dose: 100.0 mg/kg/injection, schedule: Q01DX009 (ip), vehicle: saline with Tween-80
[2] = endpoint: mean survival time, dose: 200.0 mg/kg/injection, schedule: Q01DX009 (ip), vehicle: saline with Tween-80
[3] = endpoint: mean survival time, dose: 400.0 mg/kg/injection, schedule: Q01DX009 (ip), vehicle: saline with Tween-80
[4] = endpoint: mean survival time, dose: 12.5 mg/kg/injection, schedule: Q01DX009 (ip), vehicle: water
[5] = endpoint: mean survival time, dose: 25.0 mg/kg/injection, schedule: Q01DX009 (ip), vehicle: water
[6] = endpoint: mean survival time, dose: 50.0 mg/kg/injection, schedule: Q01DX009 (ip), vehicle: water
[7] = endpoint: mean survival time, dose: 100.0 mg/kg/injection, schedule: Q01DX009 (ip), vehicle: water
[8] = endpoint: mean survival time, dose: 200.0 mg/kg/injection, schedule: Q01DX009 (ip), vehicle: water
[9] = endpoint: mean survival time, dose: 6.25 mg/kg/injection, schedule: Q01DX009 (ip), vehicle: saline
[10] = endpoint: mean survival time, dose: 12.5 mg/kg/injection, schedule: Q01DX009 (ip), vehicle: saline
[11] = endpoint: mean survival time, dose: 25.0 mg/kg/injection, schedule: Q01DX009 (ip), vehicle: saline
[12] = endpoint: mean survival time, dose: 50.0 mg/kg/injection, schedule: Q01DX009 (ip), vehicle: saline
[13] = endpoint: mean survival time, dose: 100.0 mg/kg/injection, schedule: Q04DX003 (ip), vehicle: saline with Tween-80
[14] = endpoint: mean survival time, dose: 200.0 mg/kg/injection, schedule: Q04DX003 (ip), vehicle: saline with Tween-80
[15] = endpoint: mean survival time, dose: 400.0 mg/kg/injection, schedule: Q04DX003 (ip), vehicle: saline with Tween-80
[16] = endpoint: mean survival time, dose: 100.0 mg/kg/injection, schedule: Q01DX001 (ip), vehicle: saline with Tween-80
[17] = endpoint: mean survival time, dose: 200.0 mg/kg/injection, schedule: Q01DX001 (ip), vehicle: saline with Tween-80
[18] = endpoint: mean survival time, dose: 400.0 mg/kg/injection, schedule: Q01DX001 (ip), vehicle: saline with Tween-80
[19] = endpoint: mean survival time, dose: 75.0 mg/kg/injection, schedule: Q01DX001 (ip), vehicle: saline
[20] = endpoint: mean survival time, dose: 150.0 mg/kg/injection, schedule: Q01DX001 (ip), vehicle: saline

Measured: T/C

O=C(Cc1nc2ccccc2[nH]c1=O)N/N=C/c1ccc2c(c1)CCC2
inactive: [1] 92 % of control | [2] 88 % of control | [3] 88 % of control

O=C(Nc1ccc(F)c(Cl)c1)N(CCO)C1CCCCC1
inactive: endpoint: mean survival time, dose: 50.0 mg/kg/injection, schedule: Q01DX009 (ip), vehicle: Klucel (hydroxypropylcellulose) (HPC) 91 % of control | endpoint: mean survival time, dose: 100.0 mg/kg/injection, schedule: Q01DX009 (ip), vehicle: Klucel (hydroxypropylcellulose) (HPC) 102 % of control | endpoint: mean survival time, dose: 200.0 mg/kg/injection, schedule: Q01DX009 (ip), vehicle: Klucel (hydroxypropylcellulose) (HPC) 95 % of control

NC(C(=O)O)C(O)c1cnc[nH]1 (configuration not stated)
inactive: [4] 96 % of control | [5] 100 % of control | [6] 100 % of control | [7] 104 % of control | [8] 102 % of control

COc1cc(-c2ccc(N=Nc3ccc4c(S(=O)(=O)O)cc(S(=O)(=O)O)c(N)c4c3O)c(OC)c2)ccc1N=Nc1ccc2c(S(=O)(=O)O)cc(S(=O)(=O)O)c(N)c2c1O
inactive: [9] 100 % of control | [10] 100 % of control | [11] 105 % of control

OCCN1CCN(CC/C=C2/c3ccccc3Sc3ccc(Cl)cc32)CC1
inactive: endpoint: mean survival time, dose: 1.56 mg/kg/injection, schedule: Q01DX009 (ip), vehicle: saline 92 % of control and 97 % of control | endpoint: mean survival time, dose: 3.12 mg/kg/injection, schedule: Q01DX009 (ip), vehicle: saline 98 % of control | [9] 104 % of control and 110 % of control | [10] 116 % of control and 110 % of control | [11] 122 % of control and 124 % of control | [12] 106 % of control

CCCCCCCCCCCC(=O)CCCC
inactive: endpoint: mean survival time, dose: 100.0 mg/kg/injection, schedule: Q01DX009 (ip), vehicle: other 98 % of control | endpoint: mean survival time, dose: 100.0 mg/kg/injection, schedule: Q04DX003 (ip), vehicle: other 102 % of control | endpoint: mean survival time, dose: 200.0 mg/kg/injection, schedule: Q01DX009 (ip), vehicle: other 104 % of control | endpoint: mean survival time, dose: 200.0 mg/kg/injection, schedule: Q04DX003 (ip), vehicle: other 91 % of control | endpoint: mean survival time, dose: 400.0 mg/kg/injection, schedule: Q01DX009 (ip), vehicle: other 106 % of control | endpoint: mean survival time, dose: 400.0 mg/kg/injection, schedule: Q04DX003 (ip), vehicle: other 97 % of control

CCCCC/C=C\C/C=C\CCCCCCCC(=O)OCC1CNP(=O)(N(CCCl)CCCl)O1 (configuration not stated)
inactive: endpoint: mean survival time, dose: 6.25 mg/kg/injection, schedule: Q01DX009 (ip), vehicle: water 103 % of control | [4] 95 % of control | endpoint: mean survival time, dose: 23.3 mg/kg/injection, schedule: Q01DX001 (ip), vehicle: DMSO 101 % of control | [5] 95 % of control | endpoint: mean survival time, dose: 38.9 mg/kg/injection, schedule: Q01DX001 (ip), vehicle: DMSO 98 % of control | [6] 97 % of control | endpoint: mean survival time, dose: 64.8 mg/kg/injection, schedule: Q01DX001 (ip), vehicle: DMSO 98 % of control | [7] 103 % of control | endpoint: mean survival time, dose: 108.0 mg/kg/injection, schedule: Q01DX001 (ip), vehicle: DMSO 97 % of control | endpoint: mean survival time, dose: 180.0 mg/kg/injection, schedule: Q01DX001 (ip), vehicle: DMSO 98 % of control | [8] 103 % of control | endpoint: mean survival time, dose: 300.0 mg/kg/injection, schedule: Q01DX001 (ip), vehicle: DMSO 97 % of control

O=C(CC(=O)C(F)(F)F)c1ccco1.O=C(CC(=O)C(F)(F)F)c1ccco1.O=C(CC(=O)C(F)(F)F)c1ccco1.[Eu]
inactive: [13] 94 % of control | [14] 94 % of control | [15] 89 % of control

CC(C)(CO)C(O)C(=O)NCCS(=O)(=O)c1ccc(F)cc1 (configuration not stated)
inactive: [16] 105 % of control | [1] 89 % of control | [17] 95 % of control | [2] 89 % of control | [18] 100 % of control

O=c1[nH]cc(Cc2cccc3ccccc23)c(=O)[nH]1
inactive: [16] 92 % of control | [17] 94 % of control | [18] 86 % of control

CCN(CC)Cc1cc([N+](=O)[O-])ccc1O
inactive: [19] 104 % of control | [20] 100 % of control

COc1cc([N+](=O)[O-])ccc1NC(=O)NCc1ccccc1
inactive: endpoint: mean survival time, dose: 50.0 mg/kg/injection, schedule: Q04DX002 (ip), vehicle: saline with Tween-80 89 % of control and 94 % of control | [1] 100 % of control | endpoint: mean survival time, dose: 100.0 mg/kg/injection, schedule: Q04DX002 (ip), vehicle: saline with Tween-80 88 % of control and 96 % of control and 97 % of control | [2] 95 % of control | endpoint: mean survival time, dose: 200.0 mg/kg/injection, schedule: Q04DX002 (ip), vehicle: saline with Tween-80 93 % of control and 105 % of control | [3] 103 % of control | endpoint: mean survival time, dose: 400.0 mg/kg/injection, schedule: Q04DX002 (ip), vehicle: saline with Tween-80 93 % of control

C(=N/N=C/c1ccsc1)/c1ccsc1
inactive: endpoint: median survival time, dose: 50.0 mg/kg/injection, schedule: Q04DX002 (ip), vehicle: saline with Tween-80 90 % of control | endpoint: median survival time, dose: 100.0 mg/kg/injection, schedule: Q04DX002 (ip), vehicle: saline with Tween-80 90 % of control | endpoint: median survival time, dose: 200.0 mg/kg/injection, schedule: Q04DX002 (ip), vehicle: saline with Tween-80 90 % of control | endpoint: median survival time, dose: 400.0 mg/kg/injection, schedule: Q04DX002 (ip), vehicle: saline with Tween-80 90 % of control

Cc1cc(C)c(C(=O)CC(C#N)c2ccccc2)c(C)c1 (configuration not stated)
inactive: [13] 95 % of control | [14] 98 % of control | [15] 91 % of control

COc1ccc(S(=O)(=O)N=N/C=C2\C=CC=CN2O)cc1OC
inactive: endpoint: median survival time, dose: 3.12 mg/kg/injection, schedule: Q01DX009 (ip), vehicle: saline with Tween-80 101 % of control | endpoint: median survival time, dose: 6.25 mg/kg/injection, schedule: Q01DX009 (ip), vehicle: saline with Tween-80 107 % of control | endpoint: median survival time, dose: 12.5 mg/kg/injection, schedule: Q01DX009 (ip), vehicle: saline with Tween-80 104 % of control | endpoint: median survival time, dose: 18.0 mg/kg/injection, schedule: Q01DX009 (ip), vehicle: saline with Tween-80 103 % of control | endpoint: median survival time, dose: 37.0 mg/kg/injection, schedule: Q01DX009 (ip), vehicle: saline with Tween-80 105 % of control | endpoint: median survival time, dose: 100.0 mg/kg/injection, schedule: Q01DX009 (ip), vehicle: saline with Tween-80 113 % of control | endpoint: median survival time, dose: 150.0 mg/kg/injection, schedule: Q01DX009 (ip), vehicle: saline with Tween-80 98 % of control | endpoint: median survival time, dose: 200.0 mg/kg/injection, schedule: Q01DX009 (ip), vehicle: saline with Tween-80 95 % of control

O=C(NC(Cc1ccc(I)cc1)C(=O)O)c1ccc(Br)cc1 (configuration not stated)
inactive: endpoint: median survival time, dose: 25.0 mg/kg/injection, schedule: Q01DX009 (ip), vehicle: sodium bicarbonate 98 % of control | endpoint: median survival time, dose: 50.0 mg/kg/injection, schedule: Q01DX009 (ip), vehicle: sodium bicarbonate 101 % of control | endpoint: median survival time, dose: 100.0 mg/kg/injection, schedule: Q01DX009 (ip), vehicle: sodium bicarbonate 101 % of control | endpoint: median survival time, dose: 200.0 mg/kg/injection, schedule: Q01DX009 (ip), vehicle: sodium bicarbonate 96 % of control

CO[C@]12[C@@H](COC(=O)NCCO)C3=C(C(=O)C(C)=C(N)C3=O)N1C[C@@H]1[C@H]2N1C (some centres not stated)
inactive: [10] 112 % of control | [12] 119 % of control | [19] 114 % of control | [20] 116 % of control | endpoint: mean survival time, dose: 200.0 mg/kg/injection, schedule: Q01DX009 (ip), vehicle: saline 112 % of control
